According to patent US20210355107A1, “MULTI-SUBSTITUTED PYRIDONE DERIVATIVES AND MEDICAL USE THEREOF” (Beijing Yuezhikangtai Biomedicines Co., Ltd., priority 2018, published 2021):

What was measured:
Format in all cases: biochemical
tyrosine kinase Mer = target: T1, tyrosine kinase Mer (Homo sapiens, UniProt Q12866); assay: HTRF assay, inhibitory activity against tyrosine kinase Mer; conditions: ATP at Km (30 μM), two duplicate wells
T1 construct: purchased Carna 08-108
T1 sequence (Q12866 528-999 limits assumed): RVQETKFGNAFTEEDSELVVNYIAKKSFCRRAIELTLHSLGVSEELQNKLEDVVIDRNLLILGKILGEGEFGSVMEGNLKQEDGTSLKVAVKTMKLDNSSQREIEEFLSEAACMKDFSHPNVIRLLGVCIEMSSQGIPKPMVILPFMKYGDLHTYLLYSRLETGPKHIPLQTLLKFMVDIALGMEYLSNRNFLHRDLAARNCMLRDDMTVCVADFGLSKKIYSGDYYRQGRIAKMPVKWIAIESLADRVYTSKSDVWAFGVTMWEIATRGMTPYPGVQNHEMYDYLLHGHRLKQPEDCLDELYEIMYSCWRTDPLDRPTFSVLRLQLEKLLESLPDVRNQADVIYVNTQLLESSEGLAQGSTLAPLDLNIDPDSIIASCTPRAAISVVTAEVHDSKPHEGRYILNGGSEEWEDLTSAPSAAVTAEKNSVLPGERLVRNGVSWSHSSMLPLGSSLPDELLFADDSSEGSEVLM
Experimental: (§1) Test Example 2: Evaluation of Inhibitory Activity (IC50) of Compounds disclosed herein against Tyrosine Kinases Mer and Tyro3
(§2) In this test, HTRF method was used to test the inhibitory activity of compounds when ATP concentrations correspond to the Km of the kinases. The control substance was RXDX-106. The concentration of test compound was 3-fold diluted from an initial concentration of 10 μM, and two duplicate wells were set.
(§3) Kinase Mer (Carna, Cat. No. 08-108, Lot. No. 14CBS-0421H); Tyro3 (Carna, Cat. No. 08-109, Lot. No. 08CBS-1186H); HTRF kinase-TK kit (Cisbio, Cat. No. 62TK0PEC), the kit comprising: biotin-TK substrate lyophilized powder (Cisbio, Cat. No. 61TK0BLC, Lot. No. 07A), streptavidin-XL665 (Cisbio, Cat. No. 610SAXLG, Lot. No. 126A), TK antibody-cryptate (Cisbio, Cat. No. 610SAXLG, Lot. No. 04A), and detection buffer (including EDTA) (Cisbio, Cat. No. 62TK0PEC, Lot. No. 12A); ATP (Sigma, Cat. No. A7699-5G, CAS No. 34369-07-8, Lot. No. SLBQ6014V); DMSO (Sigma, Cat. No. D5879-1L, Lot. No. SHBH9944); HEPES (Sigma, Cat. No. V900477-500G, CAS No. 7365-45-9, Lot. No. WXBC4716V); MgCl2 (Sigma, Cat. No. 208337-1KG, Lot. No. MKBX9508V); EGTA (Sigma, Cat. No. E3889-100g, CAS 67-42-5, […], Lot. No. SLBG8546V); NP-40 (Beijing Dingguo, Cat. No. DH218, Lot. No. 36R00160); DTT (Sigma, Cat. No. D0632-25g, CAS No. 3483-12-3, Lot. No. SLBF3964V); compound plate (Labcyte, Cat. No. LP0200, Lot. No. 0006386836); assay plate (Greiner, Cat. No. 784075, Lot. No. E16123HM); control substance RXDX-106 (prepared according to the method disclosed in patent WO2013074633).
(§4) 1) Preparation of a buffer: 50 mM HEPES, 10 mM MgCl2, 1 mM EGTA, 0.01% NP-40, 2 mM DTT.
(§5) 2) Preparation of control substance and test samples: RXDX-106 and the compounds disclosed herein were each dissolved in DMSO to 10 mM and then diluted to 1 mM or an appropriate concentration with DMSO, and then serial double dilution was performed using BRAVO (Agilent). 100 nL of each was transferred from a compound plate (Labcyte-LP0200) to an assay plate (Greiner-784075) using ECHO 555 (Labcyte). The final concentration of DMSO was 1%.
(§6) 3) Mer and Tyro3 were each diluted to 0.5 nM and 1.2 nM with the detection buffer (Cisbio, Cat. No. 62TK0PEC, Lot. No. 12A). 5 μL of each was added to a 384-well plate and incubated with the compounds disclosed herein for 30 min at 22-25° C. Final concentrations of Mer and Tyro3 were 0.25 nM and 0.6 nM, respectively.
(§7) 4) Biotin-TK substrate and ATP were each diluted to a concentration twice the final concentration with 1× kinase buffer made up of HEPES, NaN3, BSA and orthovanadate. 5 μL of the mixture of substrate and ATP was added to the 384-well plate to initiate the reaction, which lasts for 1 h at 22-25° C.
(§8) 5) Streptavidin-XL665 and TK antibody-cryptate were diluted to 250 nM and 0.5 nM, respectively, with the detection buffer. […] of each of the two solutions was added to the 384-well plate to initiate the reaction, which lasts for 1 h at 22-25° C. The final concentrations of streptavidin-XL665 and TK antibody-cryptate were 125 nM and 0.25 nM, respectively.
(§9) 6) The fluorescence intensities at 665 nm and 615 nm were read with an Envision Reader (PerkinElmer) .
(§10) 7) IC50 values of the compounds were fitted with XL-fit software.

tyrosine kinase Tyro3 = target: T2, tyrosine kinase Tyro3 (Homo sapiens, UniProt Q06418); assay: HTRF assay, inhibitory activity against tyrosine kinase Tyro3; conditions: ATP at Km (50 μM), two duplicate wells
T2 construct: purchased Carna 08-109
T2 sequence (Q06418 453-890 limits assumed): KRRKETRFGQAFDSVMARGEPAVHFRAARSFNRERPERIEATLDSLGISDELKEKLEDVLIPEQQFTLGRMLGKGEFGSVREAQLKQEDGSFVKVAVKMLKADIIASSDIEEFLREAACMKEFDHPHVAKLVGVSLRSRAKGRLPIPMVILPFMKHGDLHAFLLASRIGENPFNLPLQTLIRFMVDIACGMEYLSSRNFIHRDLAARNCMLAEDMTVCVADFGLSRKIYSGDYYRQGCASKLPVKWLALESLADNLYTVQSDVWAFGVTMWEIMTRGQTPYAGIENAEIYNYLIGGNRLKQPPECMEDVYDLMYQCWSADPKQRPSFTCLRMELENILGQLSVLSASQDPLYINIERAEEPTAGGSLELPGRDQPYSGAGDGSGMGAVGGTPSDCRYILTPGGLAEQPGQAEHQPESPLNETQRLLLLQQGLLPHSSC
Experimental: as §1, §2, §3, §4, §5, §6, §7, §8, §9, §10

kinase c-MET = target: T3, kinase c-MET (Homo sapiens, UniProt P08581); assay: Mobility shift assay, inhibitory activity against kinase c-MET; conditions: ATP at Km (35 μM), average of two independent experiments
T3 construct: purchased Carna 08-151
Experimental: (§11) In this test, mobility shift assay was used to test the inhibitory activity of compounds when ATP concentrations correspond to the Km of the kinases.
(§12) The concentration of test compound was 10-fold diluted from an initial concentration of 10 μM. The test result (IC50) was the average of two independent experiments.
(§13) For example, a compound at an initial concentration of 10 μM was adjusted to 500 μM with 100% DMSO, then serially diluted for 10 concentrations, and then subjected to 10-fold dilution with the buffer to prepare a diluted compound intermediate containing 10% DMSO, 5 μL of which was transferred to the 384-well plate.
(§14) 10 μL of the two enzyme solutions each was added to the 384-well plate and co-incubated with the compound for 10-15 min at room temperature.
(§15) 10 μL of the diluted substrate was added to the 384-well plate to initiate the reaction, which lasts for 1 h at 28° C.
(§16) 5) The conversion rate was read by Caliper Reader (Perkin Elmer) and the inhibition rate was calculated as the average of two tests.
(§17) 6) IC50 values were fitted with XL-fit software.

kinase Axl = target: T4, kinase Axl (Homo sapiens, UniProt P30530); assay: Mobility shift assay, inhibitory activity against kinase Axl; conditions: ATP at Km (81 μM), average of two independent experiments
T4 construct: purchased Carna 08-107
T4 sequence (P30530 473-894 limits assumed): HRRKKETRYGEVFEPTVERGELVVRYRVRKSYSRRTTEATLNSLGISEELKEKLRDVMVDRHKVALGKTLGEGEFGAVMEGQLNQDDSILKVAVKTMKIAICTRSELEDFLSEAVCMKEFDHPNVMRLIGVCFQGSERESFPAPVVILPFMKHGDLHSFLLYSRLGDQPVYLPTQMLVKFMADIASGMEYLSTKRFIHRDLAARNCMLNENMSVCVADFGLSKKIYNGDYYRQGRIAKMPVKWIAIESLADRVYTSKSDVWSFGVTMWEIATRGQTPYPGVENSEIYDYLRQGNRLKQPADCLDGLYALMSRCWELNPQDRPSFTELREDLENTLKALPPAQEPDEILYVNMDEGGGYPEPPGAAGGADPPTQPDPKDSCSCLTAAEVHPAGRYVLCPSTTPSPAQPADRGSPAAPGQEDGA
Experimental: as §11, §12, §13, §14, §15, §16, §17

T3 sequence (P08581 956-1390 limits assumed): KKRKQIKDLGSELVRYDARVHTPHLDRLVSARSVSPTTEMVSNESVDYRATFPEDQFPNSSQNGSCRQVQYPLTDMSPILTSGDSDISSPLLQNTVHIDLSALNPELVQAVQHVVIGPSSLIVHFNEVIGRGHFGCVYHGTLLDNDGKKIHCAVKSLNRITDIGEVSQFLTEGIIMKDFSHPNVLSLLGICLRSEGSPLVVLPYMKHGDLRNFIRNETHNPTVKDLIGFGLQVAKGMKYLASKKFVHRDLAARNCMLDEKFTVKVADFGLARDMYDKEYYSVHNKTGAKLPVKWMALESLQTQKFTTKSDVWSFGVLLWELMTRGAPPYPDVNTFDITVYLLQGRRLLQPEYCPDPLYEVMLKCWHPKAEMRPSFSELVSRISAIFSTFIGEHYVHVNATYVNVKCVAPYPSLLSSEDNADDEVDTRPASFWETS

IC50 (tyrosine kinase Mer) [nM] | IC50 (tyrosine kinase Tyro3) [nM] | IC50 (kinase c-MET) [nM] | IC50 (kinase Axl) [nM] | Structure (SMILES)
1.3 | 3 | 70 | 4.6 | CCn1cc(-c2cnc(N)c(-c3ccc(NC(=O)c4cn(C5CCC5)c(C#N)c(-c5ccc(F)cc5)c4=O)cc3F)c2)cn1 [Example 9, N-(4-(2-amino-5-(1-ethyl-1H-pyrazol-4-yl)pyridin-3-yl)-3-fluoro-phenyl)-6-cyano-5-(4-fluorophenyl)-1-cyclobutyl-4-oxo-1,4-dihydropyridine-3-carboxamide]
4.9 | 7.51 | 133 | 13 | COc1ccc(-c2cnc(N)c(-c3ccc(NC(=O)c4cn(C(C)C)c(C#N)c(-c5ccc(F)cc5)c4=O)cc3F)c2)cc1OC [Example 1, N-(4-(2-amino-5-(3,4-dimethoxyphenyl)pyridin-3-yl)-3-fluoro-phenyl)-6-cyano-5-(4-fluorophenyl)-1-isopropyl-4-oxo-1,4-dihydropyridine-3-carboxamide]
6.4 | 3.3 |  |  | COc1cc2nccc(Oc3ccc(NC(=O)c4cn(C(C)C)c(=O)n(-c5ccc(F)cc5)c4=O)cc3F)c2cc1OC [RXDX-106, reference compound]
